# Earlier results as cited in patent publication EP0682945B1, “Oral sustained release preparation” (Lannacher Heilmittel Ges.m.b.H., priority 1994, dated 1995).
# Details: orale Anwendung, im Mittel
compound,measurement,value
CN1CC[C@]23c4c5ccc(O)c4O[C@H]2[C@@H](O)C=C[C@H]3[C@H]1C5 [Morphin],Bioverfügbarkeit,38%
